Results on two compounds are retold here after patent publication US8350064B2, “Fluorescent xanthenes and white light fluorophores” (Board of Supervisors of Louisiana State University And …, priority 2006, dated 2013).

SMILES strings stand for the structures. Where “and” joins values, the source holds several entries; their conditions need not be identical. Equal values may be shown once. Entries after “also recorded” stand apart in the source; their conditions may differ.

Data set [1] in a line: pKa of SNAFR-2 from absorption and emission spectra as a function of pH. The class given is physicochemical. The following applies: 50 mM phosphate buffer with 0.25% DMSO. On the procedure:
SNAFR-2 was dissolved in 50 mM phosphate buffer with 0.25% DMSO. As the pH increased, the absorption band centered at 550 nm increased. We attributed this band to the anionic form (A). Concurrently, the absorption band at ca. 460 nm decreased. We attributed the 460 nm band to the neutral form (N). Four isosbestic points were observed, at 484, 394, 327, and 304 nm. The 484 nm isosbestic point is near the 488 nm Ar ion laser line. Thus ratiometric measurements using SNAFR-2 as a probe may be conducted with an Ar ion laser and common, commercially available filter sets.
FIGS. 1A through 1H depict the spectral properties of 30 μM SNAFR-2 in 50 mM phosphate buffer with 0.25% DMSO at various pH values. The arrows indicate the spectral changes as the pH increased in order: 7, 8, 8.5, 9 and 10. A=anionic form. N=neutral form. FIG. 1A depicts Absorption spectra. The * indicates the positions of isosbestic points. FIGS. 1B-D depict excitation spectra, with emission monitored at 400 nm, 540 nm, and 620 nm respectively. FIGS. 1E-H depict emission spectra with excitations at 325 nm, 488 nm, 514 nm, and 543 nm respectively, wavelengths that correspond to common laser lines. All fluorescence spectra were normalized versus the maximum for each data set.
(§1) Most prior organic fluorophores have been limited by a narrow excitation range, which has hindered their use in multiplexing systems with other fluorophores. By contrast, the absorption and excitation spectra of SNAFR-2 allow it to be excited from 260 nm to 600, a range that includes various common laser lines, for example, HeCd at 325 nm, Ar ion at 488 and 514 nm, and HeNe at 543 nm (FIGS. 1A-D). SNAFR-2 is compatible with commercially available filter sets, such as those used in various spectroscopic instruments and fluorescence microscopes. […] The pK*a was calculated as 4.54 or 4.73 at room temperature, determined as pKa-em and pKa-abs, respectively.

Data set [2] in a line: Spectral properties of SNAFR-2 in DMSO and MeOH. It counts as physicochemical. The following applies: for Φ (quantum yield relative to rhodamine 6G in EtOH, Φ = 1): excitation 514 nm. The source says: The violet-blue emission increased in these organic solvents as compared to buffer. The green emission was attributed to the neutral form. As expected, the emission corresponding to the anionic form decreased in both solvents.

A short description of data set [3]: Excited-state pK*a of SNAFR-2 estimated using the Forster equation. The class given is physicochemical.
Excerpt: as §1

In data set [4] the test system is HEp2 cells. Description: Cellular imaging of live cells (uptake and localization). The class given is cell-based. The following applies: fluorescence imaging. An excerpt:
There was a strong signal from the endoplasmic reticulum, and a smaller signal from mitochondria. […] No obvious staining of the plasma membrane was seen. However, since the plasma membrane has a large surface area, a relatively low surface signal might not have been detected. Three different filter sets, DAPI, FITC, and Texas Red, were used to select for wavelengths corresponding to the blue, green, and red emissions of SNAFR-2, respectively. […] However, autofluorescence was minimal with the longer wavelength filter sets, FITC and Texas Red.

Data set [5] in a line: Photobleaching decay of SNAFR-2 in MeOH and fluorescein in 0.1 M NaOH. It counts as physicochemical. The conditions noted are these: SNAFR-2 in MeOH; excitation 488 nm; at least 1800 s; compared with fluorescein in 0.1 M NaOH. An excerpt:
We investigated the photostability of SNAFR-2 in MeOH. […] In MeOH, SNAFR-2 can be excited efficiently at 488 nm, which corresponds to an Ar ion laser line. This wavelength also matches well with the absorbance maximum (λabs=493 nm) of fluorescein in aqueous base. We conducted photostability studies in SNAFR-2 and fluorescein solutions, with the concentration of each selected to have an absorbance of 0.03 at 488 nm. The excitation band-pass was opened to 14 nm, the maximum allowed by the instrument we used. The fluorescence signal was collected using both the S- and T-channels of the instrument. S-channel data were collected through a dual monochromator set to the emission maximum of the particular fluorophore. T-channel data were collected through a 550 nm, long-pass filter. High voltage for the photomultiplier tube (PMT) was set to 950 and 500 V for the S and T channels, respectively. […] Fluorescence intensity was monitored at the emission maximum through a dual monochromator following excitation at 543 nm. […] FIGS. 9A and 9B depict the photobleaching decay of SNAFR-2 in MeOH, and of fluorescein in 0.1 M NaOH, monitored at the emission maximum of each compound (FIG. 9A), or through a 550 nm long-pass filter (FIG. 9B). The fluorescence intensity was normalized for each compound as compared to the intensity at time t=0.

A short description of data set [6]: pKa of SNAFR-6 by absorption and fluorescence titration; aggregation in buffered media. The class given is physicochemical. The source says: Both the neutral and anionic forms could be excited simultaneously at wavelengths from ˜420 nm to ˜530 nm, a range that includes both the 488 and 514 nm argon ion laser spectral lines. The neutral emission could be selectively measured by using, for example, an FITC filter set. Also, the anionic form can be selectively excited using a longer excitation wavelength, ˜540 nm to ˜650 nm. Anionic emission can be selectively measured, using, for example, common Texas Red filter sets. SNAFR-6 is thus a versatile fluorophore for ratiometric measurements.

Data set [7] concerns HEp2 cells. Description: Cytotoxicity, CellTiter Blue Cell Viability assay. It counts as cell-based. The conditions noted are these: 24 hours, up to 100 μM (FIG. 10), dilutions 10 μM to 1.25 μM. On the procedure: Compound toxicity was tested by plating 7500 HEp2 cells per well on a Costar 96-well plate. Cells were allowed to grow for 48 hours and were then fed medium containing twofold dilutions of SNAFR-6 ranging from 10 μM to 1.25 μM. Also, 0.1% Saponin (Sigma) was used as a […] control. Cells were then incubated for 24 hours. Viability was measured using the CellTiter Blue Cell Viability assay (Promega) as per manufacturer's instructions. The fluorescence signal was detected using an excitation wavelength of 520 nm and emission wavelength of 584 nm. Viability was normalized against a scale in which untreated cells were rated 100%, and cells treated with 0.1% saponin were rated 0%. At the concentrations tested, the cytotoxicity of SNAFR-6 was low.

Data set [8] in a line: Fluorescence properties of SNAFR-6 (Stokes shift, quantum yield). The class given is physicochemical. An excerpt:
The neutral form of SNAFR-6 could be excited from ˜420 nm to ˜530 nm. Its emission was centered at 571 nm. The anionic form could be efficiently excited over a broad range from ˜420 nm to ˜650 nm, with an excitation maximum at 536 nm. The anionic emission ranged from ˜575 nm to ˜850 nm, centered at 733 nm. SNAFR-6 thus has a very large Stokes shift, 197 nm.
FIG. 7 depicts an overlay of the normalized absorption spectrum of SNAFR-6 in 0.1 M NaOH solution, and the NIR emission from its anionic form in phosphate buffer (50 mM, pH 9.3):DMSO 99:1 v/v. The anionic emission at 733 nm was readily excited throughout a ˜200 nm window, a range that includes the common argon ion laser wavelengths of 488 nm and 514 nm. The absorption maximum is located at 536 nm.
The quantum yield of the anionic (NIR) emission of SNAFR-6 in DMSO was 0.09, measured by reference to rhodamine 6G in EtOH. This is a relatively high value for an NIR dye emitting at a wavelength longer than ˜730 nm.

Where [9] appears, read: method 0-0 excitation, room temperature.

With `O=c1ccc2c(-c3ccccc3)c3ccc4cc(O)ccc4c3oc-2c1` [SNAFR-2], the pKa in data set [1] (Abs, λisobestic 304, λ1/λ2 265/304, 50 mM phosphate buffer, read-out: pKa) came out at 8.48; in data set [1] (Abs, λisobestic 304, λ1/λ2 296/304, 50 mM phosphate buffer, read-out: pKa) it was 8.54; in data set [1] (Abs, λisobestic 304, λ1/λ2 312/304, 50 mM phosphate buffer, read-out: pKa), 8.48; in data set [1] (Abs, λisobestic 327, λ1/λ2 312/327, 50 mM phosphate buffer, read-out: pKa), 8.54; in data set [1] (Abs, λisobestic 327, λ1/λ2 344/327, 50 mM phosphate buffer, read-out: pKa), 8.51; in data set [1] (Abs, λisobestic 327, λ1/λ2 380/327, 50 mM phosphate buffer, read-out: pKa), 8.51. Also, the pKa in data set [1] (Abs, λisobestic 394, λ1/λ2 344/394, 50 mM phosphate buffer, read-out: pKa) turned out to be 8.58; in data set [1] (Abs, λisobestic 394, λ1/λ2 380/394, 50 mM phosphate buffer, read-out: pKa) it was 8.68; in data set [1] (Abs, λisobestic 484, λ1/λ2 469/484, 50 mM phosphate buffer, read-out: pKa), 8.47; in data set [1] (Abs, λisobestic 484, λ1/λ2 511/484, 50 mM phosphate buffer, read-out: pKa) it was 8.54; in data set [1] (Abs, λisobestic 484, λ1/λ2 543/484, 50 mM phosphate buffer, read-out: pKa), 8.52; in data set [1] (Em, λex 325, λ1/λ2 541/597, 50 mM phosphate buffer, read-out: pKa), 8.32. Also, the pKa is 8.32 in data set [1] (Em, λex 325, λ1/λ2 575/597, 50 mM phosphate buffer, read-out: pKa); 8.38 in data set [1] (Em, λex 325, λ1/λ2 627/597, 50 mM phosphate buffer, read-out: pKa); 8.33 in data set [1] (Em, λex 488, λ1/λ2 542/600, 50 mM phosphate buffer, read-out: pKa); 8.36 in data set [1] (Em, λex 488, λ1/λ2 575/600, 50 mM phosphate buffer, read-out: pKa); 8.35 in data set [1] (Em, λex 488, λ1/λ2 630/600, 50 mM phosphate buffer, read-out: pKa); 8.31 in data set [1] (Em, λex 514, λ1/λ2 539/595, 50 mM phosphate buffer, read-out: pKa). For the same compound, the pKa was 8.32 in data set [1] (Em, λex 514, λ1/λ2 575/595, 50 mM phosphate buffer, read-out: pKa); 8.34 in data set [1] (Em, λex 514, λ1/λ2 623/595, 50 mM phosphate buffer, read-out: pKa); 8.53 ± 0.06 in data set [1] (absorption spectra, phosphate buffer with 0.25% DMSO, read-out: average pKa-abs); 8.31 to 8.38 in data set [1] (different excitation wavelengths, phosphate buffer with 0.25% DMSO, read-out: pKa values inferred from emission spectra); 8.47 to 8.68 in data set [1] (different isosbestic points, phosphate buffer with 0.25% DMSO, read-out: pKa values calculated from absorption spectra); 8.34 ± 0.02 in data set [1] (emission spectra, phosphate buffer with 0.25% DMSO, read-out: average pKa-em). The “λem (peak locations in the emission spectra)” value came out at 560 nm in data set [2] (DMSO) and 550 nm in data set [2] (MeOH). The “Φ (quantum yield relative to rhodamine 6G in EtOH, Φ = 1)” value in data set [2] (DMSO) was 0.33; in data set [2] (MeOH), 0.41. Further, the “pK*a value” in data set [3] (across different methods to calculate the excitation frequency) is given as 3.3 to 6.3. Moreover, the “pKa-abs*” value is given as 5.30 in data set [3] (method 0-0 absorption); 4.73 in data set [3] (setting [9]); 6.34 in data set [3] (method Absorption); 3.54 in data set [3] (method Emission); 6.25 in data set [3] (method Excitation). Further, the “pKa-em*” value in data set [3] (method 0-0 absorption) is listed as 5.11; in data set [3] (setting [9]) it was 4.54; in data set [3] (method Absorption), 6.15; in data set [3] (method Emission), 3.34; in data set [3] (method Excitation), 6.05. The entry into cells entry with HEp2 cells [4] is on record as “readily entered HEp2 cells”. Also, the “photostability (photobleaching decay)” value in data set [5] is “far more photostable than fluorescein; also recorded: excellent photostability; also recorded: considerably higher photostability”.

`O=c1ccc2c(-c3ccccc3)c3cc4ccc(O)cc4cc3oc-2c1` [SNAFR-6]: the entry into cells entry with HEp2 cells [4] was “readily enters cells”. The pKa in data set [6] (absorption titration) came out at 8.18 ± 0.03; in data set [6] (fluorescence titration), 8.1 ± 0.03. The aggregation entry in data set [6] (buffered media) was “Significant aggregation in buffered media was not seen”. Also, the “cytotoxicity (cell viability)” value in the data set on HEp2 cells [7] is “low and low cytotoxicity”. Further, the “quantum yield of the anionic (NIR) emission” value in data set [8] (DMSO, by reference to rhodamine 6G in EtOH) was 0.09. The Stokes shift in data set [8] (anionic form, excitation maximum 536 nm, emission 733 nm, aqueous solution) was 197 nm and ~200 nm.
